Laboratory results from patent US12458640B2, “Pyrazolo[3,4-b]pyrazine SHP2 phosphatase inhibitors” (OTSUKA PHARMACEUTICAL CO., LTD., priority 2019, dated 2025).
Where a name gives a salt, the structure may show the parent alone.

Tests used:
[1] = target: SHP2 (Homo sapiens (Human), UniProt Q06124); test: Shp2 Biochemical Assay (DiFMUP conversion); conditions: for IC50: 10 pM SHP2, activating peptide pIRS1, DiFMUP substrate, average where more than one data point
Protocol: SHP2 activity was monitored by measuring the conversion of the surrogate substrate 6,8-difluoromethylumbelliferyl phosphate (DiFMUP) to the fluorescent product, 6,8-difluoromethylumbelliferone (DiFMU).
SHP2 was pre-incubated with test compounds and the activating peptide pIRS1 (H2N-LN(pY)IDLDLV-(PEG)8-LST(pY)ASINFQK-amide) for 30 min, prior to addition of the 6,8-difluoromethylumbelliferyl phosphate (DiFMUP), (Thermo Fisher D6567). Final assay concentrations were 10 pM SHP2, 0.25 μM pIRS1 peptide, 50 μM DiFMUP, 25 mM Bis-Tris propane, pH 7.0, 150 mM NaCl, 0.05% (v/v) Tween-20, 0.5 mM TCEP and 5% (v/v) DMSO. Rates of reaction were then measured over 30 min by monitoring fluorescence on a BMG Pherastar reader at excitation 360 nm/emission 450 nm. IC50 values were calculated from the normalized dose-response plots using four parameter logistic curve fit.

[2] = test system: pERK; test: Cellular pERK Inhibition Assay (phospho-p44/42 MAPK sandwich ELISA); format: cell-based; conditions: Homo sapiens; HCC827 cells, 0.5 hours compound treatment; average where more than one data point
Protocol: Cellular pERK Inhibition Assay
HCC827 cells (ATCC, Manassas, USA) were seeded into 96-well plates at a density of 1×10^5 cells/well in RPMI medium supplemented with 10% FBS and incubated 24 h. Compounds were diluted first in DMSO and then into serum-free medium, before being added to cells in triplicate to give a final concentration of 0.1% DMSO. Plates were incubated at 37° C. for 0.5 hours in a humidified atmosphere of 5% CO2 in air.
Following compound treatment, medium was removed and cells were lysed by adding 50 μL of lysis buffer (Cell Signalling Technology, Beverly, USA) to each well. Plates were then incubated at room temperature for 25 minutes with shaking. pERK levels were measured in lysates using the PathScan® phospho-p44/42 MAPK (Thr202/Tyr204) sandwich ELISA (Cell Signalling Technology, Beverly, USA) as per kit instructions. Briefly, 50 μL of cell lysate was added to 50 μL of ELISA sample diluent in a 96-well ELISA plate and incubated overnight at 4° C. Following washing, 100 μL of detection antibody was added per well and the plates incubated for 1 hour at 37° C. Plates were washed again and incubated at 37° C. for 30 minutes with 100 μl of HRP-linked secondary antibody per well. After final washing, 100 μL per well of TMB substrate was added and plates incubated at 37° C. to develop colour. Colour development was stopped by the addition of 100 μL per well of stop solution. Plates were read at 450 nm on a SpectraMax Gemini reader (Molecular Devices, Uckfield, UK).
The average signal from blank wells (no cells added) was subtracted from the signals from each sample well. Levels of pERK were then expressed as “percent of control”, using DMSO treated samples as control. Dose response curves were generated using GraphPad Prism Version 6 (GraphPad Software, La Jolla, USA) and fitted using the four parameter logistic curve fit.

Sequence of SHP2 (Q06124 whole entry): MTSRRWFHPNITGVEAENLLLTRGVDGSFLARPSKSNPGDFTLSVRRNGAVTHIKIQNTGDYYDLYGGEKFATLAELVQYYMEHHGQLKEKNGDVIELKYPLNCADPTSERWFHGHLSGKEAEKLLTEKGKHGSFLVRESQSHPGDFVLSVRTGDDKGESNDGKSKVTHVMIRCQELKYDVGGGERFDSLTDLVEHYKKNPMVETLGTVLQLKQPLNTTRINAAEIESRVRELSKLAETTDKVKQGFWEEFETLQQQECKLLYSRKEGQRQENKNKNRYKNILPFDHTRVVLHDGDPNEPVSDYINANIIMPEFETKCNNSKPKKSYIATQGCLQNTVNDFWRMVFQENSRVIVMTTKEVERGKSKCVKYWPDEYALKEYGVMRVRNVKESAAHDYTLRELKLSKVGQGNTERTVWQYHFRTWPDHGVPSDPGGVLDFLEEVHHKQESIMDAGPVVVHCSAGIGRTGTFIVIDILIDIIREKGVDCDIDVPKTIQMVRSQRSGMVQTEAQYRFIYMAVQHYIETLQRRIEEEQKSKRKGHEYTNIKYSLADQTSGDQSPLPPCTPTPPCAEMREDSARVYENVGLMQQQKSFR

Cn1cc2c(Cl)c(-c3n[nH]c4nc(N5CCC6(CC5)CC(F)(F)C[C@H]6N)c(CO)nc34)ccc2n1 [Example 7, {6-[(1R)-1-amino-3,3-difluoro-8-azaspiro[4.5]decan-8-yl]-3-(4-chloro-2-methyl-2H-indazol-5-yl)-1H-pyrazolo[3,4-b]pyrazin-5-yl}methanol]
IC50 [1]: 11 nM | IC50 [2]: 6.3 nM

Cc1nc2c(-c3ccc4nn(C)cc4c3Cl)n[nH]c2nc1N1CCC2(CC1)COC[C@H]2N [Example 3, (4S)-8-[3-(4-chloro-2-methyl-2H-indazol-5-yl)-5-methyl-1H-pyrazolo[3,4-b]pyrazin-6-yl]-2-oxa-8-azaspiro[4.5]decan-4-amine]
IC50 [1]: 5.6 nM | IC50 [2]: 40 nM

Cc1nc2c(-c3ccc4ncc(N5CCOCC5)nc4c3Cl)n[nH]c2nc1N1CCC2(CC1)CO[C@@H](C)[C@H]2N [Example 26, (3S,4S)-8-{3-[5-chloro-3-(morpholin-4-yl)quinoxalin-6-yl]-5-methyl-1H-pyrazolo[3,4-b]pyrazin-6-yl}-3-methyl-2-oxa-8-azaspiro[4.5]decan-4-amine]
IC50 [1]: 28 nM | IC50 [2]: 18 nM

Cc1c2c(Cl)c(-c3n[nH]c4nc(N5CCC6(CC5)CO[C@@H](C)[C@H]6N)c(CO)nc34)ccc2nn1C [Example 21, {6-[(3S,4S)-4-amino-3-methyl-2-oxa-8-azaspiro[4.5]decan-8-yl]-3-(4-chloro-2,3-dimethyl-2H-indazol-5-yl)-1H-pyrazolo[3,4-b]pyrazin-5-yl}methanol]
IC50 [1]: 15 nM | IC50 [2]: 5.7 nM

Cn1nc2ccc(-c3n[nH]c4nc(N5CCC6(CC5)CC(F)(F)C[C@H]6N)c(CO)nc34)c(Cl)c2c1Cl [Example 16, {6-[(1R)-1-amino-3,3-difluoro-8-azaspiro[4.5]decan-8-yl]-3-(3,4-dichloro-2-methyl-2H-indazol-5-yl)-1H-pyrazolo[3,4-b]pyrazin-5-yl}methanol]
IC50 [1]: 7 nM | IC50 [2]: 6.2 nM

Cc1nc2c(-c3ccc4ncc(N(C)C)nc4c3Cl)n[nH]c2nc1N1CCC2(CC1)CO[C@@H](C)[C@H]2N [Example 10, (3S,4S)-8-{3-[5-chloro-3-(dimethylamino)quinoxalin-6-yl]-5-methyl-1H-pyrazolo[3,4-b]pyrazin-6-yl}-3-methyl-2-oxa-8-azaspiro[4.5]decan-4-amine]
IC50 [1]: 19 nM | IC50 [2]: 17 nM

Cc1nc2c(-c3cccc(Cl)c3F)n[nH]c2nc1N1CCC2(CC1)CO[C@@H](C)[C@H]2N [Example 19, (3S,4S)-8-[3-(3-chloro-2-fluorophenyl)-5-methyl-1H-pyrazolo[3,4-b]pyrazin-6-yl]-3-methyl-2-oxa-8-azaspiro[4.5]decan-4-amine]
IC50 [1]: 9.8 nM | IC50 [2]: 100 nM

Cc1nc2c(-c3ccc4nn(C)cc4c3Cl)n[nH]c2nc1N1CCC2(CC1)CO[C@@H](C)[C@H]2N [Example 6, (3S,4S)-8-[3-(4-Chloro-2-methyl-2H-indazol-5-yl)-5-methyl-1H-pyrazolo[3,4-b]pyrazin-6-yl]-3-methyl-2-oxa-8-azaspiro[4.5]decan-4-amine]
IC50 [1]: 18 nM | IC50 [2]: 12 nM

COc1cnc2ccc(-c3n[nH]c4nc(N5CCC6(CC5)CO[C@@H](C)[C@H]6N)c(CO)nc34)c(Cl)c2n1 [Example 22, {6-[(3S,4S)-4-amino-3-methyl-2-oxa-8-azaspiro[4.5]decan-8-yl]-3-(5-chloro-3-methoxyquinoxalin-6-yl)-1H-pyrazolo[3,4-b]pyrazin-5-yl}methanol]
IC50 [1]: 11 nM | IC50 [2]: 8.4 nM

CCn1cc2c(Cl)c(-c3n[nH]c4nc(N5CCC6(CC5)COC[C@H]6N)c(C)nc34)ccc2n1 [Example 5, (4S)-8-[3-(4-chloro-2-ethyl-2H-indazol-5-yl)-5-methyl-1H-pyrazolo[3,4-b]pyrazin-6-yl]-2-oxa-8-azaspiro[4.5]decan-4-amine]
IC50 [1]: 7.6 nM | IC50 [2]: 46 nM

COc1cnc2ccc(-c3n[nH]c4nc(N5CCC6(CCC[C@H]6N)CC5)c(C)nc34)c(Cl)c2n1 [Example 14, (1R)-8-[3-(5-chloro-3-methoxyquinoxalin-6-yl)-5-methyl-1H-pyrazolo[3,4-b]pyrazin-6-yl]-8-azaspiro[4.5]decan-1-amine]
IC50 [1]: 13 nM | IC50 [2]: 150 nM

Cc1nc2c(-c3ccc4ncc(N(C)C)nc4c3Cl)n[nH]c2nc1N1CCC2(CCC[C@H]2N)CC1 [Example 12, 7-(6-[(1R)-1-amino-8-azaspiro[4.5]decan-8-yl]-5-methyl-1H-pyrazolo[3,4-b]pyrazin-3-yl}-8-chloro-N,N-dimethyl-quinoxalin-2-amine]
IC50 [1]: 15 nM | IC50 [2]: 33 nM

Cc1nc2c(-c3ccc4nn(C)cc4c3Cl)n[nH]c2nc1N1CCC2(CC1)CC(F)(F)C[C@H]2N [Example 2, (1R)-8-[3-(4-chloro-2-methyl-2H-indazol-5-yl)-5-methyl-1H-pyrazolo[3,4-b]pyrazin-6-yl]-3,3-difluoro-8-azaspiro[4.5]decan-1-amine hydrochloride]
IC50 [1]: 17 nM | IC50 [2]: 81 nM

C[C@@H]1OCC2(CCN(c3nc4[nH]nc(-c5cccc(Cl)c5Cl)c4nc3CO)CC2)[C@@H]1N [Example 18, {6-[(3S,4S)-4-amino-3-methyl-2-oxa-8-azaspiro[4.5]decan-8-yl]-3-(2,3-dichlorophenyl)-1H-pyrazolo[3,4-b]pyrazin-5-yl}methanol]
inhibition at 0.003 µM ([1]; at 0.0030 μM, read-out: SHP2 % inhibition at given concentration): 37% | IC50 [2]: 4.9 nM

C[C@@H]1OCC2(CCN(c3nc4[nH]nc(-c5cccc(Cl)c5F)c4nc3CO)CC2)[C@@H]1N [Example 23, {6-[(3S,4S)-4-amino-3-methyl-2-oxa-8-azaspiro[4.5]decan-8-yl]-3-(3-chloro-2-fluorophenyl)-1H-pyrazolo[3,4-b]pyrazin-5-yl}methanol]
IC50 [1]: 5.4 nM | IC50 [2]: 5.8 nM

C[C@@H]1OCC2(CCN(c3nc4[nH]nc(-c5ccc6ncc(N(C)C)nc6c5Cl)c4nc3CO)CC2)[C@@H]1N [Example 17, {6-[(3S,4S)-4-amino-3-methyl-2-oxa-8-azaspiro[4.5]decan-8-yl]-3-[5-chloro-3-(dimethylamino)quinoxalin-6-yl]-1H-pyrazolo[3,4-b]pyrazin-5-yl}methanol]
IC50 [1]: 14 nM | IC50 [2]: 5.3 nM

COc1cnc2ccc(-c3n[nH]c4nc(N5CCC6(CC5)CO[C@@H](C)[C@H]6N)c(C)nc34)c(Cl)c2n1 [Example 9, (3S,4S)-8-[3-(5-chloro-3-methoxyquinoxalin-6-yl)-5-methyl-1H-pyrazolo[3,4-b]pyrazin-6-yl]-3-methyl-2-oxa-8-azaspiro[4.5]decan-4-amine hydrochloride]
IC50 [1]: 18 nM | IC50 [2]: 45 nM

Cn1nc2ccc(-c3n[nH]c4nc(N5CCC6(CC5)C[C@H](F)C[C@H]6N)c(CO)nc34)c(Cl)c2c1Cl [Example 20, {6-[(1R,3S)-1-amino-3-fluoro-8-azaspiro[4.5]decan-8-yl]-3-(3,4-dichloro-2-methyl-2H-indazol-5-yl)-1H-pyrazolo[3,4-b]pyrazin-5-yl}methanol]
IC50 [1]: 7.1 nM | IC50 [2]: 4.1 nM

Cc1nc2c(-c3ccc4nn(C)c(Cl)c4c3Cl)n[nH]c2nc1N1CCC2(CC1)COC[C@H]2N [Example 4, (4S)-8-[3-(3,4-dichloro-2-methyl-2H-indazol-5-yl)-5-methyl-1H-pyrazolo[3,4-b]pyrazin-6-yl]-2-oxa-8-azaspiro[4.5]decan-4-amine]
IC50 [1]: 5.3 nM
